The record followed here is ChEMBL document CHEMBL3297683.

Assay [1] has as its target Lactoylglutathione lyase (Homo sapiens) (UniProt Q04760). The assay is described as follows: Competitive inhibition of human GLO1 expressed in Escherichia coli JM103 at 0.1 to 0.7 mM by Dixon plot analysis.
For assay [2] the target is unchanged. Nature of the assay: Inactivation of human GLO1 expressed in Escherichia coli JM103 at 4.7 to 80.6 uM after 5 to 180 secs.

Each structure is given as a SMILES string. Active and inactive are the calls of the source. The rule behind the calls is not given here.

Chain of Lactoylglutathione lyase (Homo sapiens) (Q04760 2-184 limits assumed): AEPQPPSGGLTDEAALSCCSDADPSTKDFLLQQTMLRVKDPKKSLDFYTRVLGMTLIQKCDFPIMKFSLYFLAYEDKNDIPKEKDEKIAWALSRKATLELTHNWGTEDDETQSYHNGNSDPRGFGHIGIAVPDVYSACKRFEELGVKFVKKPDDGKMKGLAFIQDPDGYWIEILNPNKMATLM

As to `N[C@@H](CCC(=O)N[C@@H](CSCC(=O)OCCCCOC(=O)CBr)C(=O)NCC(=O)O)C(=O)O`, the inhibition entry in assay [1] is “inactive”. Besides, the result in assay [2] was Active.
